{"source": "patent US5955508A", "about": "“Method for the enhancement of lymphocyte activity against opportunistic microbial pathogens” (priority 1996, dated 1999)", "key": {"[1]": {"test_system": "Candida albicans", "assay": "Lymphocyte mediated antifungal activity against Candida albicans (growth inhibition), lymphocytes from HIV+ patients", "format": "cell-based", "settings": "for mean change in antifungal activity: 50 ng/ml d-FEN vs no d-FEN; for Antifungal Units, d-FEN: one line per patient and Mean + SEM", "text": "(§1) The T lymphocytes analyzed were obtained from 20 HIV+ patients (9 females and 11 males, 25-48 years of age). The patients were diagnosed as being HIV+ within the past 0.5-9 years, and 15 are being treated with antiviral drugs. The subjects' study identification number (indicates the order in which bloods were drawn), CD4+ and CD8+ counts (determined March, 1996, as part of the present study), age, sex, date of diagnosis, and pharmacotherapy are provided in Table 1.\nThe patients fell into one of three groups (Groups A, B and C) based on their CD4+ cell counts (the number of T helper cells/μL blood): 8 of the HIV+ patients had normal (or above normal) CD4+ levels (normal range 550-1500/μL); 4 had levels between 200-499/μL; and, 7 had CD4+ counts equal to or below 200/μL. This latter group of patients by definition have AIDS (see Table 41-3 from K. J. Ryan (Ed.), Sherris Medical Microbiology, Third Edition, Appleton & Lange:Norwalk, Conn., 1994, p. 547). These patients, moreover, have had recurrent candidiasis and other opportunistic infections which have become increasingly difficult to manage. All of the patients' CD8+ cell (cytotoxic T lymphocytes) counts were within or above normal range (300-1000/μL). We were unable to obtain enough lymphocytes from one patient (#4) to analyze their antifungal activity.\n(§2) The experimental protocol for this project is illustrated in Table A. Note that the cultures were exposed to two doses (5 and 50 ng/ml) of d-FEN in the mitogenesis assays, whereas only one dose (50 ng/ml) was used in the antifungal and cytokine release assays.\nIsolation of Peripheral Blood Mononuclear Cells. Forty ml of venous blood were aseptically drawn into sterile 10 ml tubes containing 20 U/ml preservative free heparin, diluted with an equal volume of Hank's Balanced Salt Solution (HBSS), layered over Lymphocyte Separation Medium (LSM, Bionetics, Kensington, Md.), and centrifuged at 1,000×g for 30 min. After centrifugation, the mononuclear cell layer was recovered from the interface and washed twice in HBSS prior to further manipulation and then enumerated microscopically.\nLymphocyte Mediated Antifungal Activity Against Candida albicans: Fungal Culture. C. albicans cultures were stored at 25° C. on Sabouraud's dextrose agar (SDA) (Becton Dickinson and Co., Cockeysville, Md.). Cells used for experimentation were cultured overnight at 37° C. on SDA, collected as isolated colonies, and washed once in HBSS. Yeast cultures were enumerated microscopically. C. albicans were inoculated into RPMI 1640 medium. C. albicans hyphal forms were obtained by incubation at 37° C. with 5% CO2 in RPMI 1640. Inoculum of 2×10^5 yeast cells/ml yield approximately 100% hyphal fragments when incubated for 2 h at 37° C.\nActivation of Lymphocytes. Human peripheral blood lymphocytes were placed in culture medium containing 5×10^-5 2-mercaptoethanol (2-ME) at a concentration of 2.0×10^6 cells/ml with d-FEN (50 ng/ml was added on the second day of culture) and 1,500 U/ml IL-2 (Hoffman-La Roche Inc., Nutley, N.J.) in Falcon, Multiwell plates (Becton Dickinson, Lincoln Park, N.J.) for 3 and 4 days. The cells were harvested following incubation at 37° C., overlaid onto LSM and centrifuged at 1,000×g for 20 min. The cells at the interface were washed twice with HBSS prior to assessment of functional activity.\nMeasurement of the Inhibition of C. albicans Growth. Fungal cells used for experimentation were collected from isolated, overnight colonies on SDA, and washed once in HBSS. Yeast were resuspended to 2×10^5 /ml in RPMI 1640 and 5×10^3 yeast placed in individual wells of 96 well flat bottom plates (Corning Glass Works, #25861, Corning, N.Y.). […]"}, "[2]": {"test_system": "IL-2 in CD4+ (CD8-) T cells", "assay": "IL-2 production by CD4+ (CD8-) T cells, flow cytometry", "format": "cell-based, human", "settings": "for % Positive Cells (IL-2 immunopositive), d-FEN / IL-2 Titer, d-FEN: CD4+ (CD8-) T cells, Mean ± SEM", "text": "as §1, §2\n(§3) Cytokine Profiles. Peripheral mononuclear cells were isolated by the Ficoll-Hypaque method and washed twice with RPMI-1640 medium. Cell suspensions were made at 1×10^6 /ml and the cells activated with interleukin-2 (IL-2) for 18 h or 4 days at 37° C. under 5% CO^2 +95% air. Monensin (1 nM) then was added to the culture to block secretion of cytokines, and the cultures allowed to continue for another 3 h. The cells were washed twice with PBS+1% fetal calf serum (FCS) with 0.1% saponin+0.1% sodium azide, then washed once with PBS-1% FCS and stained with anti-cytokine MAb-FL conjugate for 30 min. Following two washes, the cells were analyzed by flow cytometry for production of IL-2, IFN-γ and TNF-α. The MAbs-FL conjugates were obtained from Pharmingen (San Diego, Calif.). Potential effects of on cytokine production were evaluated (a) as increases in the percentage of a T cell subset which produce the respective cytokine; and, (b) as increases in the amount of cytokine produced by each subset. The latter were analyzed as a shift of the cytokine histograms.\n(§4) The data were analyzed by a one- or two-way analysis of variance (ANOVA) with repeated measures where appropriate ([…] version 1; Jandel, San Rafael, Calif.). Significant main effects were subjected to post hoc analysis using the Student-Newman Keuls All Pairwise Multiple Comparisons test or the Mann-Whitney U test."}, "[3]": {"test_system": "INF-γ in CD4+ (CD8-) T cells", "assay": "INF-γ production by CD4+ (CD8-) T cells, flow cytometry", "format": "cell-based, human", "settings": "for % Positive Cells (INF-γ immunopositive), d-FEN / INF-γ Titer, d-FEN: CD4+ (CD8-) T cells, Mean ± SEM; for activation at 0.05 µg/mL: Homo sapiens, T-cell", "text": "as §1, §2, §3, §4"}, "[4]": {"test_system": "TNF-α in CD4+ (CD8-) T cells", "assay": "TNF-α production by CD4+ (CD8-) T cells, flow cytometry", "format": "cell-based, human", "settings": "for % Positive Cells (TNF-α immunopositive), d-FEN / TNF-α Titer, d-FEN: CD4+ (CD8-) T cells, Mean ± SEM; for inhibition at 0.05 µg/mL: Homo sapiens, T-cell", "text": "as §1, §2, §3, §4"}, "[5]": {"settings": "whether by intravenous or oral administration; cited from earlier work"}}, "note": "Values joined by “and” are separate entries in the source; they are usually repeats but may differ in a detail not shown here. Equal entries are not always repeated. Where two headings read alike, the source gives them in different places."}
{"smiles": "CCN[C@@H](C)Cc1cccc(C(F)(F)F)c1", "note": "[d-FEN]", "values": [{"measurement": "mean change in antifungal activity", "setting": "[1]; Group B", "result": -13, "unit": "%"}, {"measurement": "mean change in antifungal activity", "setting": "[1]; Group C (AIDS)", "result": "+100%"}, {"measurement": "patients showing increased antifungal activity", "setting": "[1]; 50 ng/ml d-FEN, Group A", "result": "7 of the 8"}, {"measurement": "Antifungal Units, d-FEN", "setting": "[1]; 50 ng/ml d-FEN, Group A (normal CD4+ HIV+ patients)", "result": "62 Antifungal Units and 84 Antifungal Units and 82 Antifungal Units and 144 Antifungal Units and 31 Antifungal Units and 60 Antifungal Units and 236 Antifungal Units and 95 ± 23 Antifungal Units"}, {"measurement": "antifungal activity response in words", "setting": "[1]; 50 ng/ml d-FEN, Group B", "result": "mixed response"}, {"measurement": "Antifungal Units, d-FEN", "setting": "[1]; 50 ng/ml d-FEN, Group B (CD4+ 200-499/μL)", "result": "16 Antifungal Units and 164 Antifungal Units and 120 Antifungal Units and 75 Antifungal Units and 94 ± 32 Antifungal Units"}, {"measurement": "patients showing increased antifungal activity", "setting": "[1]; 50 ng/ml d-FEN, Group C (AIDS)", "result": "all 7 of the AIDS patients (Group C) evidenced increased"}, {"measurement": "Antifungal Units, d-FEN", "setting": "[1]; 50 ng/ml d-FEN, Group C (AIDS)", "result": "130 Antifungal Units and 321 Antifungal Units and 164 Antifungal Units and 355 Antifungal Units and 307 Antifungal Units and 314 Antifungal Units and 394 Antifungal Units and 284 ± 37 Antifungal Units"}, {"measurement": "antifungal activity of Group C vs other two groups", "setting": "[1]; 50 ng/ml d-FEN, one-way ANOVA p<0.001", "result": "significantly greater in the presence of d-FEN"}, {"measurement": "% Positive Cells (IL-2 immunopositive), d-FEN", "setting": "[2]; 50 ng/ml, AIDS", "result": "9 ± 4", "unit": "%"}, {"measurement": "IL-2 Titer, d-FEN", "setting": "[2]; 50 ng/ml, AIDS", "result": "213 ± 33 geometric mean channel fluorescence"}, {"measurement": "% Positive Cells (IL-2 immunopositive), d-FEN", "setting": "[2]; 50 ng/ml, non-AIDS HIV+", "result": "32 ± 3", "unit": "%"}, {"measurement": "IL-2 Titer, d-FEN", "setting": "[2]; 50 ng/ml, non-AIDS HIV+", "result": "308 ± 27 geometric mean channel fluorescence"}, {"measurement": "effect on IL-2 levels in words", "setting": "[2]; 50 ng/ml, CD4+ T cells, non-AIDS", "result": "not in the non-AIDS patients' CD4+ T cells"}, {"measurement": "activation at 0.05 µg/mL", "setting": "[2]; Homo sapiens, T-cell, read-out: percent increase of IL-2 titer over VEH", "result": 55, "unit": "%"}, {"measurement": "% Positive Cells (INF-γ immunopositive), d-FEN", "setting": "[3]; 50 ng/ml, AIDS", "result": "18 ± 2", "unit": "%"}, {"measurement": "INF-γ Titer, d-FEN", "setting": "[3]; 50 ng/ml, AIDS", "result": "336 ± 45 geometric mean channel fluorescence"}, {"measurement": "% Positive Cells (INF-γ immunopositive), d-FEN", "setting": "[3]; 50 ng/ml, non-AIDS HIV+", "result": "16 ± 2", "unit": "%"}, {"measurement": "INF-γ Titer, d-FEN", "setting": "[3]; 50 ng/ml, non-AIDS HIV+", "result": "473 ± 37 geometric mean channel fluorescence"}, {"measurement": "effect on INF-γ levels in words", "setting": "[3]; 50 ng/ml, CD4+ T cells", "result": "did not have any significant effect"}, {"measurement": "activation at 0.05 µg/mL", "setting": "[3]; read-out: percent increase over VEH (printed under Titer, d-FEN), 50 ng/ml, CD4+ T cells, AIDS", "result": 38, "unit": "%"}, {"measurement": "activation at 0.05 µg/mL", "setting": "[3]; read-out: percent increase over VEH (printed under Titer, d-FEN), 50 ng/ml, CD4+ T cells, non-AIDS", "result": 33, "unit": "%"}, {"measurement": "activation at 0.05 µg/mL", "setting": "[3]; 50 ng/ml, CD4+ T cells, all patients, p=0.007, read-out: increase in the percent of INF-γ immunopositive T cells", "result": "33 to 38", "unit": "%"}, {"measurement": "% Positive Cells (TNF-α immunopositive), d-FEN", "setting": "[4]; 50 ng/ml, AIDS", "result": "31 ± 4", "unit": "%"}, {"measurement": "TNF-α Titer, d-FEN", "setting": "[4]; 50 ng/ml, AIDS", "result": "156 ± 40 geometric mean channel fluorescence"}, {"measurement": "% Positive Cells (TNF-α immunopositive), d-FEN", "setting": "[4]; 50 ng/ml, non-AIDS HIV+", "result": "69 ± 3", "unit": "%"}, {"measurement": "TNF-α Titer, d-FEN", "setting": "[4]; 50 ng/ml, non-AIDS HIV+", "result": "310 ± 40 geometric mean channel fluorescence"}, {"measurement": "effect on TNF-α level in words", "setting": "[4]; 50 ng/ml, CD4+ T cells, AIDS", "result": "not in the AIDS CD4+ T cells"}, {"measurement": "effect on number of TNF-α+ cells in words", "setting": "[4]; 50 ng/ml, CD4+ T cells, AIDS", "result": "failed to affect"}, {"measurement": "inhibition at 0.05 µg/mL", "setting": "[4]; read-out: percent change of TNF-α titer vs VEH", "result": 23, "unit": "%"}, {"measurement": "inhibition at 0.05 µg/mL", "setting": "[4]; read-out: reduction of the level of TNF-α", "result": 23, "unit": "%"}, {"measurement": "protein binding", "setting": "[5]", "result": "about 36%"}]}
